{
  "source": "patent US7314959B2",
  "about": "“Amino thiol compounds and compositions for use in conjunction with cancer therapy” (Wisconsin Alumni Research Foundation, priority 2003, dated 2008)",
  "key": {"[1]": {"tested_on": "hamster cheek pouch mucosa", "assay": "Radiation-induced mucositis, hamster cheek pouch model", "type": "in vivo", "conditions": "50 mM or 500 mM topical for 30 min before 30 Gy (17.5 min) irradiation", "description": "The model for radiation-induced oral mucositis was developed for the purpose of screening and identifying effective polyamines and aminothiols useful for treatment. The model used in this example was derived from the oral mucositis model described by Alvarez et al. (Clin. Cancer Research 9:3454-3461, 2003). Male golden Syrian hamsters (70-95 gram, Charles River Laboratories, Wilmington, Mass.) were used. Animals were individually numbered, housed in small groups and fed and watered ad libitum. Hamsters were anesthetized with sodium pentobarbital (80 mg/kg body weight, Sigma, St. Louis, Mo.). The left buccal cheek pouch was everted and secured. A protective lead shield covered the remainder of the animal. Subsequently, the cheek pouch was irradiated with a single dose of radiation from 20 to 40 Gy delivered to the targeted mucosa in the ^137Cs irradiator. Starting 10 to 12 days after radiation, the severity of mucositis was assessed every two days. The severity level of mucositis was evaluated using a modified mucositis scoring system described by Sonis S. T. et al. (Oral Oncology 36:373-381, 2000)\nThe scoring system was as follows: • 0=Pouch completely healthy. No erythema or vasodilatation. • 1=Erythema. • 2=Severe erythema, vasodilatation • 3=Severe erythema/vasodilatation. Superficial erosion on radiated pouch surface area. • 4=Formation of ulcers in one or more places. […]"}, "[2]": {"tested_on": "supercoiled pUC19 plasmid", "assay": "Hydroxyl radical scavenging, plasmid DNA protection", "type": "biochemical", "conditions": "0-70 mM, pH 6.5; even the lowest concentration tested; UV 2.5 min", "description": "Method: 0.3 μg pUC19 plasmid was added to a 16 μl incubation containing Tris-EDTA buffer, then either PrC-210 (0-70 mM, pH 6.5) or buffer were added to the incubation. The polypropylene microtubes were then sealed and irradiated for 2.5 min at a distance of 80 cm from a UV lamp. Samples were then applied to 1% agarose gels and electrophoresed using methods known in the art."}},
  "data": [
    {"smiles": "CNCC(CS)CNC", "note": "[PrC-210, 3-methylamino-2-methylaminomethyl-propane-1-thiol]", "values": [
      {"measurement": "effect on radiation-induced erythema, swelling and inflexibility of cheek pouch", "setting": "[1]", "result": "significant decrease in the erythema, swelling and inflexibility"},
      {"measurement": "protection of supercoiled DNA from OH radical damage", "setting": "[2]", "result": "completely prevented damage to supercoiled DNA"}
    ]}
  ]
}
